For five compounds, EC50 results are on record in US9498479B2, “Dihydropyrimidine compounds and their application in pharmaceuticals” (SUNSHINE LAKE PHARMA CO., LTD., priority 2013, dated 2016).

The test system of the test is HBV. Briefly: In-vitro anti-HBV activity in stable HBV-producing cell line (HepG2.2.15), HBV DNA in culture fluid by qPCR. The format is cell-based. The conditions noted are these: Hepatitis B virus, 168 h; HepG2.2.15 cells, HBV DNA in culture media on day 7, qPCR. The procedure: Specific procedures are as follows:
HepG2.2.15 cells were seeded into each well of 96-well plates, 40,000 cells per well. Cells were treated with cell culture medium containing compounds with different concentrations 24 hours after cell seeding. The final concentration of each compound was 16.4 μM in each well and each compound was diluted to desired concentration using 3-fold gradient dilution protocol, 9 diluted points in duplicate. The culture mediums containing the compounds were refreshed on day 4 post cell seeding. Culture media were collected from the HepG2.2.15 plates on day 7 post cell seeding followed by HBV DNA extraction.
HBV DNA extraction: The HBV DNA extraction was performed using QIAamp 96 DNA Blood Kit (QIAGEN 51161).
PCR for quantification: PCR mix was prepared according to PCR system. PCR mix was dispensed to 96-well optical reaction plates (special for quantification). The standard diluted proportionally was added. Then the sample was added; The plates were sealed with optical adhesive film; PCR system was performed according to programs.
Percentage of HBV inhibition of DNA replication by compound was calculated using the following equation: % Inh.=[1-HBV DNA quantity of sample/HBV DNA quantity of DMSO control]*100.
Calculating EC50 value of compounds to HBV replication: the EC50 values were calculated based on “four-parameter logistic equation” and using GraphPad Prism 5 analysis software.
For orientation: In qPCR the cycle at which signal appears reflects the starting amount.
By EC50 is commonly meant the concentration needed to bring the measured effect to its halfway point. Low values mean an effect from little substance, high ones a need for much substance. Consider `COC(=O)C1=C(CN2CC(F)(F)C[C@@H]2CCC(=O)O)NC(c2nccs2)=N[C@H]1c1ccc(Cl)cc1Cl` [Example 22, 3-((S)-1-(((R)-6-(2,4-dichlorophenyl)-5-(methoxycarbonyl)-2-(thiazol-2-yl)-3,6-dihydropyrimidin-4-yl)methyl)-4,4-difluoropyrrolidin-2-yl)propanoic acid], for which the EC50 stood at 11 nM.

In turn, `CCOC(=O)C1=C(CN2CC(F)(F)C[C@H]2CCC(=O)O)NC(c2nccs2)=N[C@H]1c1ccc(F)cc1Cl` [Example 12, 3-((R)-1-(((R)-6-(2-chloro-4-fluorophenyl)-5-(ethoxycarbonyl)-2-(thiazol-2-yl)-3,6-dihydropyrimidin-4-yl)methyl)-4,4-difluoropyrrolidin-2-yl)propanoic acid] yielded a half-maximal effective concentration (EC50) of 98 nM.

Regarding `CCOC(=O)C1=C(CN2CC(F)(F)C[C@@H]2CCC(=O)O)NC(c2nccs2)=N[C@H]1c1ccc(F)cc1Cl` [Example 19, 3-((S)-1-(((R)-6-(2-chloro-4-fluorophenyl)-5-(ethoxycarbonyl)-2-(thiazol-2-yl)-3,6-dihydropyrimidin-4-yl)methyl)-4,4-difluoropyrrolidin-2-yl)propanoic acid], the EC50 came out at 20 nM.

`CCOC(=O)C1=C(CN2CC(F)(F)C[C@@H]2CCC(=O)O)NC(c2nccs2)=N[C@H]1c1ccc(F)cc1Br` [Example 17, 3-((S)-1-(((R)-6-(2-bromo-4-fluorophenyl)-5-(ethoxycarbonyl)-2-(thiazol-2-yl)-3,6-dihydropyrimidin-4-yl)methyl)-4,4-difluoropyrrolidin-2-yl)propanoic acid] gave an EC50 of 12 nM. Against the preceding compound, the EC50 is about 1.7-fold lower.

For `CCOC(=O)C1=C(CN2CCS(=O)(=O)C[C@H]2C(=O)O)NC(c2nccs2)=N[C@H]1c1ccc(F)cc1Br` [Example 2, (R)-4-(((R)-6-(2-bromo-4-fluorophenyl)-5-(ethoxycarbonyl)-2-(thiazol-2-yl)-3,6-dihydropyrimidin-4-yl)methyl)thiomorpholine-3-carboxylic acid 1,1-dioxide], the EC50 came to 6630 nM.
